Our source for the EC50 values is ChEMBL document CHEMBL5728731, “Alkyl chain modified imidazoquinoline TLR7/8 agonist compounds and uses thereof” (2021).

The target of one assay is T1, Toll-like receptor 8 (Homo sapiens, UniProt Q9NR97).
T1 sequence (Q9NR97 whole entry): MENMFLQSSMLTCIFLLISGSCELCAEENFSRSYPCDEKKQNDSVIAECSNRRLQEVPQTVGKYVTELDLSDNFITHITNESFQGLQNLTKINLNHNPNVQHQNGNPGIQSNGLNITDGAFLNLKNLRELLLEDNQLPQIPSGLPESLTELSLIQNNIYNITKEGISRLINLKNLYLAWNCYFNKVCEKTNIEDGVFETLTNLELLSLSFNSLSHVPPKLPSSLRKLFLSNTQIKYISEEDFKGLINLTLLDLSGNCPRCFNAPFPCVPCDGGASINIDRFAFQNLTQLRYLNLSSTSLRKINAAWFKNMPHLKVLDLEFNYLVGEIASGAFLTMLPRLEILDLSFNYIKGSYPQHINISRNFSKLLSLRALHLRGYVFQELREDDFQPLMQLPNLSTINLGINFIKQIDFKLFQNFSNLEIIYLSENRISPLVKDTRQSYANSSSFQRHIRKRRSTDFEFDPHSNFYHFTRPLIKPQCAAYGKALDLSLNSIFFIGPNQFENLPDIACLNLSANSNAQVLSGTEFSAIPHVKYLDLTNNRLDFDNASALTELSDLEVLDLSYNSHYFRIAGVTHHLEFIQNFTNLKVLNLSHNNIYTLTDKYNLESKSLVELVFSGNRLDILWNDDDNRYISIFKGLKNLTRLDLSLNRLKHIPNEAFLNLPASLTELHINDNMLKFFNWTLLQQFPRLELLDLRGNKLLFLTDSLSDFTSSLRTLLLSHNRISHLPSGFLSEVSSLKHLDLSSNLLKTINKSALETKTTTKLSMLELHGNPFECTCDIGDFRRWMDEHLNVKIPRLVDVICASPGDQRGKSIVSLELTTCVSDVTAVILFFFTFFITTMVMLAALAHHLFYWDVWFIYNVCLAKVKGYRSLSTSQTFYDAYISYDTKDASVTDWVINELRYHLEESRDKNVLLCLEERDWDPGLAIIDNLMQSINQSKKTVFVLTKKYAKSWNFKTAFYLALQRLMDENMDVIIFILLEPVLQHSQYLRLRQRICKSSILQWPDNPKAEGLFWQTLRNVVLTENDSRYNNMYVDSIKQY
Briefly: (§1) n Vitro Biological Assays: Plasmacytoid dendritic cell (pDC)—enriched peripheral blood mononuclear cells (PBMCs) were prepared from the blood of a series of human donors (3-5 donors/experiment). PBMCs were isolated using Ficoll-Paque Premium® (GE Healthcare, Chicago Ill.) using methods well known to those in the art. pDCs were magnetically isolated from the total recovered PBMC population using CD304 (BDCA-4/Neuropilin-1) microbeads (Miltenyi Biotec, San Diego Calif.), according to the manufacturer's instructions. Isolated pDCs were then added back to between 1 and 2×108 of the corresponding donor's PBMCs for relative enrichment of this cell type. […] Culture supernatants were collected and interferon-alpha (IFNα) protein levels were measured by ELISA (MabTech, Cincinnati Ohio), according to the manufacturer's instructions.Monocytes were magnetically isolated from PBMCs, prepared as described above, following labeling with CD14 microbeads (Miltenyi Biotec, San Diego Calif.), according to the manufacturer's instructions. […] Culture supernatants were collected and tumor necrosis factor alpha (TNFα) protein levels were measured by ELISA (MabTech, Cincinnati Ohio), according to the manufacturer's instructions. (In general: An ELISA detects its analyte on a solid surface through an enzyme-linked reagent.)

Another assay has as its target T2, Toll-like receptor 7 (Homo sapiens, UniProt Q9NYK1).
T2 sequence (Q9NYK1 whole entry): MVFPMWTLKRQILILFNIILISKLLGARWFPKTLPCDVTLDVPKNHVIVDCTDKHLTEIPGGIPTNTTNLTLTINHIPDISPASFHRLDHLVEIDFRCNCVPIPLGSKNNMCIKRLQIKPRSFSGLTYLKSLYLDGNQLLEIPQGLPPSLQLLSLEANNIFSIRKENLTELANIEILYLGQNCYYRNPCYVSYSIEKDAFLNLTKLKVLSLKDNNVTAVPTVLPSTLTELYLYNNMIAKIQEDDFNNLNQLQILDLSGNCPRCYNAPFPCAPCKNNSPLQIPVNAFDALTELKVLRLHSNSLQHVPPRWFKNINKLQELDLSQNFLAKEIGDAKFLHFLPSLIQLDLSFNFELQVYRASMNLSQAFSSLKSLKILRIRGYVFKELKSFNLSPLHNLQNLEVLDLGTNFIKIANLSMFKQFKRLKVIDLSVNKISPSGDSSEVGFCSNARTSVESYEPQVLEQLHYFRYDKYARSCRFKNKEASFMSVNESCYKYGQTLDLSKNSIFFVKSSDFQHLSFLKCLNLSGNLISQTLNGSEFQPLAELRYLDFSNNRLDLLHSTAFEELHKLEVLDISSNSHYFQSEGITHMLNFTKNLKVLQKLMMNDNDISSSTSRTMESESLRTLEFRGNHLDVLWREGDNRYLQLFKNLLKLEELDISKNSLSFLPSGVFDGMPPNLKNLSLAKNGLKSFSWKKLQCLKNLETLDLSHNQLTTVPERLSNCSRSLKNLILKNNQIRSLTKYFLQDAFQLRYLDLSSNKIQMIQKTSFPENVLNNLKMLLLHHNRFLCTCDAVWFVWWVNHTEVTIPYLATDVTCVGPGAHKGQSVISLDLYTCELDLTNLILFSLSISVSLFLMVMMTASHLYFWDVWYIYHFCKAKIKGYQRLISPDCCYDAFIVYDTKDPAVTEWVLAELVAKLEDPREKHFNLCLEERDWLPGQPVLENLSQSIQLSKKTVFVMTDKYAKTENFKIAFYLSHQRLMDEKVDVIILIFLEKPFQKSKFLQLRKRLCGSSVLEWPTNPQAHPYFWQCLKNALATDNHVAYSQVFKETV
The assay is described as §1.

What is called EC50 is the concentration that produces a half-maximal response. Turning to `CCCCCCCCCCCCCCCCCC(=O)NCc1ccc(Cn2c(CCCC)nc3c(N)nc4ccccc4c32)cc1`, the EC50 at Toll-like receptor 8 was 5720 nM; on Toll-like receptor 7 it was 41 nM.

With `CCCCCCCCCCCCCCC(=O)NCc1ccc(Cn2c(CCCC)nc3c(N)nc4ccccc4c32)cc1`, the EC50 stood at 827 nM at Toll-like receptor 8 and 2 nM on Toll-like receptor 7.

On to `CCCCCC(=O)NCc1ccc(Cn2c(CCCC)nc3c(N)nc4ccccc4c32)cc1`, for which the EC50 at Toll-like receptor 8 amounted to 2140 nM; at Toll-like receptor 7 it was 11 nM.
